From ChEMBL document CHEMBL3739350, “Novel hydrazone moiety-bearing aminopyrimidines as selective inhibitors of epidermal growth factor receptor T790M mutant” (Eur J Med Chem, 2015)

Each compound was assayed on HT-29 (assay: cells). Conditions: Homo sapiens, HT-29, 72 h.
Format: functional, cell-based
Description: Cytotoxicity against human HT-29 cells assessed as inhibition of cell proliferation after 72 hrs by MTT assay
For `C=CC(=O)Nc1cccc(Oc2nc(Nc3ccc(N4CCN(C)CC4)cc3OC)ncc2Cl)c1`, the IC50 was 2.95 µM. In the case of `COc1ccc(/C(C)=N/Nc2ncc(Cl)c(Nc3cccc(NC(=O)/C=C/CN(C)C)c3)n2)cc1`, the IC50 is reported as 6.83 µM. `COc1ccc(/C=N/Nc2ncc(Cl)c(Nc3cccc(NC(=O)/C=C/CN(C)C)c3)n2)cc1` showed an IC50 of 4.82 µM. With `C=CC(=O)Nc1cccc(Nc2nc(N/N=C/c3ccccc3F)ncc2Cl)c1` the IC50 was 3.5 µM. `C/C(=N\Nc1ncc(Cl)c(Nc2cccc(NC(=O)/C=C/CN(C)C)c2)n1)c1ccc(F)cc1` showed an IC50 of 10.2 µM. `COc1cccc(/C(C)=N/Nc2ncc(Cl)c(Nc3cccc(NC(=O)/C=C/CN(C)C)c3)n2)c1` was tested, and the IC50 was 3.87 µM. `C=CC(=O)Nc1cccc(Nc2nc(N/N=C(\C)c3ccc(F)cc3F)ncc2Cl)c1` was tested, and the IC50 was 4.36 µM. `C=CC(=O)Nc1cccc(Nc2nc(N/N=C(\C)c3ccc(OC)cc3)ncc2Cl)c1` showed an IC50 of 4.56 µM. `CN(C)C/C=C/C(=O)Nc1cccc(Nc2nc(N/N=C/c3ccncc3)ncc2Cl)c1` was tested, and the IC50 was 25.2 µM. With `C=CC(=O)Nc1cccc(Nc2nc(N/N=C(\C)c3cccc(OC)c3)ncc2Cl)c1` the IC50 was 8.99 µM. `C=CC(=O)Nc1cccc(Nc2nc(N/N=C/c3ccc(F)cc3)ncc2Cl)c1` gave an IC50 of 6.34 µM. For `C=CC(=O)Nc1cccc(Nc2nc(N/N=C/c3ccc(F)cc3F)ncc2Cl)c1`, the IC50 was 4.76 µM. `CN(C)C/C=C/C(=O)Nc1cccc(Nc2nc(N/N=C/c3c[nH]c4ccccc34)ncc2Cl)c1` gave an IC50 of 9.68 µM.

Each compound was assayed against Epidermal growth factor receptor (Homo sapiens, UniProt P00533) (assay: Inhibition of wild type recombinant human EGFR preincubated for 10 mins followed by FAM-labeled peptide/ATP addition measured after 1 hr by mobility shift assay). Conditions: not given.
Chain of Epidermal growth factor receptor (Homo sapiens, UniProt P00533) (P00533 whole entry): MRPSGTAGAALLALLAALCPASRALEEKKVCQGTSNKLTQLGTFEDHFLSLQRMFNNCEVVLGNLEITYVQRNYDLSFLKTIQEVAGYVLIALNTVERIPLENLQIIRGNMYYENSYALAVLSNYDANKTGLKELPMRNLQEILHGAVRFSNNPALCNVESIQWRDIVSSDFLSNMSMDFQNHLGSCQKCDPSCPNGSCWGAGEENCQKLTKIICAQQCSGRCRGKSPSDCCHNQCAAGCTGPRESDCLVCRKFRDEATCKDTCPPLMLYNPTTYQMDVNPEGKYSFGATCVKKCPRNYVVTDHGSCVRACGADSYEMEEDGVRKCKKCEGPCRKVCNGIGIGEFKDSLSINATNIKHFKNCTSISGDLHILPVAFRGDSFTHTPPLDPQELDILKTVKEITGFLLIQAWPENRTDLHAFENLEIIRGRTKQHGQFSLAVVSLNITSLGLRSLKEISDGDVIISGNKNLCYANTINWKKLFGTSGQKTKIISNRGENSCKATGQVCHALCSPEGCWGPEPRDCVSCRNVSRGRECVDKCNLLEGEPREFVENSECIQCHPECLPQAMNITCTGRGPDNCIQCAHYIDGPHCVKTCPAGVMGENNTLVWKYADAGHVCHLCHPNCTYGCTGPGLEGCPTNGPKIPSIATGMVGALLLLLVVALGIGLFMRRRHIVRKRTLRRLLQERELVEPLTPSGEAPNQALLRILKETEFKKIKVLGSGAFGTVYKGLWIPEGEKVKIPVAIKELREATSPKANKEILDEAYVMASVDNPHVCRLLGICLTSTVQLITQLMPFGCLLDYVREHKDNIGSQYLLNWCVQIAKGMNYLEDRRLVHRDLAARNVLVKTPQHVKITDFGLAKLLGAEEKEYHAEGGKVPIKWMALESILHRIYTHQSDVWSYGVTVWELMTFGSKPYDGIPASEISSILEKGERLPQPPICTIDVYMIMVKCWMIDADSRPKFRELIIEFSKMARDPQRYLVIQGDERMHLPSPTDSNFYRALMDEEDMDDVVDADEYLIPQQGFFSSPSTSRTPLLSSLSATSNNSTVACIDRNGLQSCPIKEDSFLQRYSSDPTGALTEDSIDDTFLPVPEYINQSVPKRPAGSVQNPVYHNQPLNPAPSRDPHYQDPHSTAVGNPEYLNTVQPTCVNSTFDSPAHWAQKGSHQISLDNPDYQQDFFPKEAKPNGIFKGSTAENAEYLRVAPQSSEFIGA
`C=CC(=O)Nc1cccc(Nc2nc(N/N=C/c3ccccc3F)ncc2Cl)c1` showed an IC50 of over 20 µM. For `C/C(=N\Nc1ncc(Cl)c(Nc2cccc(NC(=O)/C=C/CN(C)C)c2)n1)c1ccc(F)cc1`, the IC50 was 15.3 µM. `C=CC(=O)Nc1cccc(Nc2nc(N/N=C(\C)c3ccc(F)cc3F)ncc2Cl)c1` was tested, and the IC50 was 11.8 µM. In the case of `C=CC(=O)Nc1cccc(Nc2nc(N/N=C/c3ccc(F)cc3)ncc2Cl)c1`, the IC50 is reported as over 20 µM. `C=CC(=O)Nc1cccc(Nc2nc(N/N=C/c3ccc(F)cc3F)ncc2Cl)c1` gave an IC50 of over 20 µM. `CN(C)C/C=C/C(=O)Nc1cccc(Nc2nc(N/N=C/c3c[nH]c4ccccc34)ncc2Cl)c1` was tested, and the IC50 was over 20 µM.

The compounds below were run against Epidermal growth factor receptor (Homo sapiens, UniProt P00533, T790M) (assay: not given). Conditions: not given.
Chain of Epidermal growth factor receptor (Homo sapiens, UniProt P00533, T790M) (P00533 25-1210 T790M limits assumed): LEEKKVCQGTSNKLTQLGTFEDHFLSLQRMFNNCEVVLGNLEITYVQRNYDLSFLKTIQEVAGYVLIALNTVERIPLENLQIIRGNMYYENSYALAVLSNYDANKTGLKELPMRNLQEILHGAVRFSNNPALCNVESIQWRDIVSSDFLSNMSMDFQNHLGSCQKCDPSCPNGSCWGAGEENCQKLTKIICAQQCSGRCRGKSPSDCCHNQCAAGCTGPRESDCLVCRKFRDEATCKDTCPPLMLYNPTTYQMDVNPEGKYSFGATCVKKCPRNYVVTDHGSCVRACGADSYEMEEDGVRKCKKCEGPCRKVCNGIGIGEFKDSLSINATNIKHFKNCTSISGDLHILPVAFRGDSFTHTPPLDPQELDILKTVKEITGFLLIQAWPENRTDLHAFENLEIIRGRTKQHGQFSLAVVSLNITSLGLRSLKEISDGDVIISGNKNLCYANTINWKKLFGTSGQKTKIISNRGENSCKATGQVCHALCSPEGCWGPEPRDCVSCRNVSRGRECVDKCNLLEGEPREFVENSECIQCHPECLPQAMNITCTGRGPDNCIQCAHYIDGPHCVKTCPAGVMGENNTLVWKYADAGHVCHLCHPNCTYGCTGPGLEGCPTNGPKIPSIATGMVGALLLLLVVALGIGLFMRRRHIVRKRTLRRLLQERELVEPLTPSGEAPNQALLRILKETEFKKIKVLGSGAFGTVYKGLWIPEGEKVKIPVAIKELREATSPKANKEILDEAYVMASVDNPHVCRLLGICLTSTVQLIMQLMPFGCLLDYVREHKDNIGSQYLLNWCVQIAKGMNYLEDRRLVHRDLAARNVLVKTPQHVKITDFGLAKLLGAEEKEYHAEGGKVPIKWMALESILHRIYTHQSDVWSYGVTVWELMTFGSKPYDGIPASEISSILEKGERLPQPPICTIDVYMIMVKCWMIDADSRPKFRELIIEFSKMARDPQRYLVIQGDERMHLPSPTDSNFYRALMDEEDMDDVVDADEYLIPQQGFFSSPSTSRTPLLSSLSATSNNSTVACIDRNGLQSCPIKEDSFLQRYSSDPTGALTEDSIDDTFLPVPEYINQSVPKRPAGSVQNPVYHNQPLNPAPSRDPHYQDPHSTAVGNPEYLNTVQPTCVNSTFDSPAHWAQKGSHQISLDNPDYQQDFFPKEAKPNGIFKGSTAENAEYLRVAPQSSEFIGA
Format: protein assay
In the case of `C=CC(=O)Nc1cccc(Nc2nc(N/N=C/c3ccccc3F)ncc2Cl)c1`, the IC50 is reported as 4740 nM. With `C=CC(=O)Nc1cccc(Nc2nc(N/N=C/c3ccc(F)cc3)ncc2Cl)c1` the IC50 was 1120 nM.

Each compound was assayed against Epidermal growth factor receptor (Homo sapiens, UniProt P00533, DELE746/T790M) (assay: not given). Conditions: not given.
Chain of Epidermal growth factor receptor (Homo sapiens, UniProt P00533, DELE746/T790M) (P00533 whole entry E746del/T790M, looked up): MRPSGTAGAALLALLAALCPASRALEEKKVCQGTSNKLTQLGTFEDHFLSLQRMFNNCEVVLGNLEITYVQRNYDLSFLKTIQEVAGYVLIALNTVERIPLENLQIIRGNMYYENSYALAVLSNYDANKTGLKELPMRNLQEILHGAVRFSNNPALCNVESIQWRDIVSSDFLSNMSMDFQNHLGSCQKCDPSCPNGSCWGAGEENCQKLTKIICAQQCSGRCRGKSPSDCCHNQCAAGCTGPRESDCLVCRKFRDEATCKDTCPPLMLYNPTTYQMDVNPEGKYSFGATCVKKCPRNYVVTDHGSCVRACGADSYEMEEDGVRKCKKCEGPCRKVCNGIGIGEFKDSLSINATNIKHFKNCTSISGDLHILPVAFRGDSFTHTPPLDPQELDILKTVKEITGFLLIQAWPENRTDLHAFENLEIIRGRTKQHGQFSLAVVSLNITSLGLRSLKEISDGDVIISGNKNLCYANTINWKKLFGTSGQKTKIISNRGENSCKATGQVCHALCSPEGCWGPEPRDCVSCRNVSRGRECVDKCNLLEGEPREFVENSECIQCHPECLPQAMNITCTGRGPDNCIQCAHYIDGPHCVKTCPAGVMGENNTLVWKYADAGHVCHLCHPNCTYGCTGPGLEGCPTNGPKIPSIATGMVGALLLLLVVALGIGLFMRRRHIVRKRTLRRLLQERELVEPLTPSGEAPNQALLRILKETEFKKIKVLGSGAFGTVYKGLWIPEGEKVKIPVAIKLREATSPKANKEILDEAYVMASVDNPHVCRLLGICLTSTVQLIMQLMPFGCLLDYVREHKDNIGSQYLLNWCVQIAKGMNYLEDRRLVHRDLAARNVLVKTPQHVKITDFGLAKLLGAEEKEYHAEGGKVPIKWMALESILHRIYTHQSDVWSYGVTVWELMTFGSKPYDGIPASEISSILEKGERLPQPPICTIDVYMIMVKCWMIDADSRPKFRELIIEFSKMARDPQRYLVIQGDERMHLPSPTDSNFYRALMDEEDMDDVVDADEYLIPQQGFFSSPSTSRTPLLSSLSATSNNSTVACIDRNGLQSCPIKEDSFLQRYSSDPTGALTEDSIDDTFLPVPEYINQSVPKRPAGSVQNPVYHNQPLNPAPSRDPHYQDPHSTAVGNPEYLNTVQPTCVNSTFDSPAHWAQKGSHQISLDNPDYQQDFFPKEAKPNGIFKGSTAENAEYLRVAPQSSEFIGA
Format: protein assay
`C=CC(=O)Nc1cccc(Nc2nc(N/N=C/c3ccccc3F)ncc2Cl)c1` gave an IC50 of 1910 nM. Compound `C=CC(=O)Nc1cccc(Nc2nc(N/N=C/c3ccc(F)cc3)ncc2Cl)c1` has an IC50 of 570 nM.

What follows are compounds tested against Epidermal growth factor receptor (Homo sapiens, UniProt P00533, L858R/T790M) (assay: not given). Conditions: not given.
Chain of Epidermal growth factor receptor (Homo sapiens, UniProt P00533, L858R/T790M) (P00533 25-1210 T790M/L858R limits assumed): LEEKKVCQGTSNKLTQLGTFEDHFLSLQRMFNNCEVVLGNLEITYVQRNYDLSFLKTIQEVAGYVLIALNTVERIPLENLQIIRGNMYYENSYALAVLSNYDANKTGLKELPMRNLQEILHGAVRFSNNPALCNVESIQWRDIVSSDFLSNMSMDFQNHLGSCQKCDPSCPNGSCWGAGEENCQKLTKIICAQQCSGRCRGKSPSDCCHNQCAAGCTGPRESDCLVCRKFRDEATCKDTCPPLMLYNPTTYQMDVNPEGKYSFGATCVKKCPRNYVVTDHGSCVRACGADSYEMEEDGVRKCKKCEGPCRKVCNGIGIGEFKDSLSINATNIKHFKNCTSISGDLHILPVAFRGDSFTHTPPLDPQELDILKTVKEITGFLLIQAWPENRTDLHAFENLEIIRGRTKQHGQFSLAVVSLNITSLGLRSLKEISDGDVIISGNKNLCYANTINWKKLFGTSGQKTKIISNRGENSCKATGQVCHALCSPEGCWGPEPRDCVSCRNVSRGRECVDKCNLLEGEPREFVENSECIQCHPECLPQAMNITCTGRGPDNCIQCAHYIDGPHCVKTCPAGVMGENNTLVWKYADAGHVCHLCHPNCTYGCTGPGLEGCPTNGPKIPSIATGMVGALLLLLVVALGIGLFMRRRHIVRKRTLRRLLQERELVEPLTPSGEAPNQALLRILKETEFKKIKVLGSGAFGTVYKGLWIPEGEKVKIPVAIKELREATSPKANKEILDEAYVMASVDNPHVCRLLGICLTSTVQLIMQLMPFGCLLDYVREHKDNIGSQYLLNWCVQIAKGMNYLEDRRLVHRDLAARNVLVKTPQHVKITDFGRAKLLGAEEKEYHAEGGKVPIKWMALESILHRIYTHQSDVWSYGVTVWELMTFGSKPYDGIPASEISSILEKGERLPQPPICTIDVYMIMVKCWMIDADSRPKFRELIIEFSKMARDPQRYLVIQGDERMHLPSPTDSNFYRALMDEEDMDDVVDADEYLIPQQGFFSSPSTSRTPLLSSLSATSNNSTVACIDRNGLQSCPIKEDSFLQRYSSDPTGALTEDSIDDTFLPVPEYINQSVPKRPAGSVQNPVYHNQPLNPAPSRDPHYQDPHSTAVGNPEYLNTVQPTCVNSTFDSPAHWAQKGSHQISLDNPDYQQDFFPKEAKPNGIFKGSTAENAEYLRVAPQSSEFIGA
Format: protein assay
With `C=CC(=O)Nc1cccc(Nc2nc(N/N=C/c3ccccc3F)ncc2Cl)c1` the IC50 was 1510 nM. `C/C(=N\Nc1ncc(Cl)c(Nc2cccc(NC(=O)/C=C/CN(C)C)c2)n1)c1ccc(F)cc1` showed an IC50 of 2350 nM. With `C=CC(=O)Nc1cccc(Nc2nc(N/N=C(\C)c3ccc(F)cc3F)ncc2Cl)c1` the IC50 was 2270 nM. For `C=CC(=O)Nc1cccc(Nc2nc(N/N=C/c3ccc(F)cc3)ncc2Cl)c1`, the IC50 was 860 nM. With `C=CC(=O)Nc1cccc(Nc2nc(N/N=C/c3ccc(F)cc3F)ncc2Cl)c1` the IC50 was 11600 nM. In the case of `CN(C)C/C=C/C(=O)Nc1cccc(Nc2nc(N/N=C/c3c[nH]c4ccccc34)ncc2Cl)c1`, the IC50 is reported as over 20000 nM.

What follows are compounds tested on NCI-H1975 (assay: cells). Conditions: Homo sapiens, NCI-H1975, 72 h.
Format: functional, cell-based
For `C=CC(=O)Nc1cccc(Oc2nc(Nc3ccc(N4CCN(C)CC4)cc3OC)ncc2Cl)c1`, the IC50 was 58 nM. In the case of `COc1ccc(/C(C)=N/Nc2ncc(Cl)c(Nc3cccc(NC(=O)/C=C/CN(C)C)c3)n2)cc1`, the IC50 is reported as 990 nM. `COc1ccc(/C=N/Nc2ncc(Cl)c(Nc3cccc(NC(=O)/C=C/CN(C)C)c3)n2)cc1` was tested, and the IC50 was 1580 nM. In the case of `C=CC(=O)Nc1cccc(Nc2nc(N/N=C/c3ccccc3F)ncc2Cl)c1`, the IC50 is reported as 290 nM. Work on `C/C(=N\Nc1ncc(Cl)c(Nc2cccc(NC(=O)/C=C/CN(C)C)c2)n1)c1ccc(F)cc1` yielded an IC50 of 1160 nM. `COc1cccc(/C(C)=N/Nc2ncc(Cl)c(Nc3cccc(NC(=O)/C=C/CN(C)C)c3)n2)c1` gave an IC50 of 910 nM. For `C=CC(=O)Nc1cccc(Nc2nc(N/N=C(\C)c3ccc(F)cc3F)ncc2Cl)c1`, the IC50 was 300 nM. Compound `C=CC(=O)Nc1cccc(Nc2nc(N/N=C(\C)c3ccc(OC)cc3)ncc2Cl)c1` has an IC50 of 1060 nM. With `CN(C)C/C=C/C(=O)Nc1cccc(Nc2nc(N/N=C/c3ccncc3)ncc2Cl)c1` the IC50 was 4130 nM. In the case of `C=CC(=O)Nc1cccc(Nc2nc(N/N=C(\C)c3cccc(OC)c3)ncc2Cl)c1`, the IC50 is reported as 1190 nM. With `C=CC(=O)Nc1cccc(Nc2nc(N/N=C/c3ccc(F)cc3)ncc2Cl)c1` the IC50 was 430 nM. Work on `C=CC(=O)Nc1cccc(Nc2nc(N/N=C/c3ccc(F)cc3F)ncc2Cl)c1` yielded an IC50 of 380 nM. `CN(C)C/C=C/C(=O)Nc1cccc(Nc2nc(N/N=C/c3c[nH]c4ccccc34)ncc2Cl)c1` showed an IC50 of 5450 nM.

Each compound was assayed on A549 (assay: Antiproliferative activity against human A549 cells harboring wild type EGFR/k-Ras mutation after 72 hrs by MTT assay). Conditions: A549, 72 h.
Format: functional, cell-based
`C=CC(=O)Nc1cccc(Oc2nc(Nc3ccc(N4CCN(C)CC4)cc3OC)ncc2Cl)c1` was tested, and the IC50 was 1.87 µM. In the case of `COc1ccc(/C(C)=N/Nc2ncc(Cl)c(Nc3cccc(NC(=O)/C=C/CN(C)C)c3)n2)cc1`, the IC50 is reported as 7.12 µM. With `COc1ccc(/C=N/Nc2ncc(Cl)c(Nc3cccc(NC(=O)/C=C/CN(C)C)c3)n2)cc1` the IC50 was 6.24 µM. In the case of `C=CC(=O)Nc1cccc(Nc2nc(N/N=C/c3ccccc3F)ncc2Cl)c1`, the IC50 is reported as 6.06 µM. `C/C(=N\Nc1ncc(Cl)c(Nc2cccc(NC(=O)/C=C/CN(C)C)c2)n1)c1ccc(F)cc1` was tested, and the IC50 was 8.96 µM. With `COc1cccc(/C(C)=N/Nc2ncc(Cl)c(Nc3cccc(NC(=O)/C=C/CN(C)C)c3)n2)c1` the IC50 was 11.4 µM. For `C=CC(=O)Nc1cccc(Nc2nc(N/N=C(\C)c3ccc(F)cc3F)ncc2Cl)c1`, the IC50 was 1.63 µM. `C=CC(=O)Nc1cccc(Nc2nc(N/N=C(\C)c3ccc(OC)cc3)ncc2Cl)c1` was tested, and the IC50 was 7.71 µM. In the case of `CN(C)C/C=C/C(=O)Nc1cccc(Nc2nc(N/N=C/c3ccncc3)ncc2Cl)c1`, the IC50 is reported as 47.7 µM. For `C=CC(=O)Nc1cccc(Nc2nc(N/N=C(\C)c3cccc(OC)c3)ncc2Cl)c1`, the IC50 was 10.3 µM. `C=CC(=O)Nc1cccc(Nc2nc(N/N=C/c3ccc(F)cc3)ncc2Cl)c1` gave an IC50 of 10.4 µM. `C=CC(=O)Nc1cccc(Nc2nc(N/N=C/c3ccc(F)cc3F)ncc2Cl)c1` was tested, and the IC50 was 11.2 µM. With `CN(C)C/C=C/C(=O)Nc1cccc(Nc2nc(N/N=C/c3c[nH]c4ccccc34)ncc2Cl)c1` the IC50 was 28.7 µM.
